Experimental data as given in patent US20210179600A1, “OXAZOLE AND THIAZOLE DERIVATIVES AS INHIBITORS OF ASK1” (Hepagene Therapeutics (HK) Limited, priority 2017, published 2021).

Each compound was assayed against T1, Recombinant human ASK1 kinase (Homo sapiens, UniProt Q99683) (assay: ASK1 kinase HTRF assay (KinEASE-STK)). Details: HTRF detection; 3 nM ASK1 kinase, 1 uM STK-substrate-biotin.
T1 construct: purchased Invitrogen Inc
T1 sequence (Q99683 1-1374): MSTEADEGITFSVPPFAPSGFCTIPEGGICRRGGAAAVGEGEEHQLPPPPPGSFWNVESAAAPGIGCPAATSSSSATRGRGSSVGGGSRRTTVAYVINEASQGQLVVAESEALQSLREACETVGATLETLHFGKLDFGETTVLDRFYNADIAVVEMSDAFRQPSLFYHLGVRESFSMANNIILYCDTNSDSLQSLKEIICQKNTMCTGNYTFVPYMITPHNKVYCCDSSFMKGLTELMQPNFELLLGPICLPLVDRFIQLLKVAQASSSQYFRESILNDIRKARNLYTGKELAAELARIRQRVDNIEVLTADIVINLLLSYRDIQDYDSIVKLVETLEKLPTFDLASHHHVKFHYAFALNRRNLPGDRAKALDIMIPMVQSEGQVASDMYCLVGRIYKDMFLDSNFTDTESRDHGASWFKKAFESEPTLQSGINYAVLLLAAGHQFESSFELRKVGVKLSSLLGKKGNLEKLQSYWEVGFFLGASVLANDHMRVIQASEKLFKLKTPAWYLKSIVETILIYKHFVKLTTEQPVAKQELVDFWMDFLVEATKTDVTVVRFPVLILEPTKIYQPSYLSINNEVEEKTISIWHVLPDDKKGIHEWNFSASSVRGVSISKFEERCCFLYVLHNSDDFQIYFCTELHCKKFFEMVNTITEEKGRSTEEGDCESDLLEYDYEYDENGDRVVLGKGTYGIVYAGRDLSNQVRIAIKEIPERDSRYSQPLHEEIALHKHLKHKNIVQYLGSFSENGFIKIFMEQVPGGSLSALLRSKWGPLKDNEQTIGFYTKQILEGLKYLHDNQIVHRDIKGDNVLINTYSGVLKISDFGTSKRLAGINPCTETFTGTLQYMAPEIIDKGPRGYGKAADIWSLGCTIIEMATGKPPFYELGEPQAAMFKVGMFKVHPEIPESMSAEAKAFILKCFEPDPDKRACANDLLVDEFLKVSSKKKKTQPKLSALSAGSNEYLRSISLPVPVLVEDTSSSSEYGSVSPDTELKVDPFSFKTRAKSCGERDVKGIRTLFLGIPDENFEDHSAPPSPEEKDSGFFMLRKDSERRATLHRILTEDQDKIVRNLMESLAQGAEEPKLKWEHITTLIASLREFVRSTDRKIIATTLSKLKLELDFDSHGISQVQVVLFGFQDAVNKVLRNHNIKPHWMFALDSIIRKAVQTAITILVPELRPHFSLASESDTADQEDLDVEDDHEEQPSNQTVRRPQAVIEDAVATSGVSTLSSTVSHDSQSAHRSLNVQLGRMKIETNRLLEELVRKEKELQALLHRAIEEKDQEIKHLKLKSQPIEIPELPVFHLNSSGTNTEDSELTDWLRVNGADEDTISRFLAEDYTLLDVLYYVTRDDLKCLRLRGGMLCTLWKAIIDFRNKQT
Type: biochemical
Experimental: Reagents: Recombinant human ASK1 kinase was from Invitrogen Inc. HTRF KinEASE™-STK S3 kit was obtained from Cisbio (Bedford, Mass.). All other reagents were of the highest grade commercially available.
Assay: The assay measures the phosphorylation level of a biotinylatd peptide substrate by the ASK1 kinase using HTRF detection. ASK1 kinase assay is based on HTRF KinEASE™-STK manual from Cisbio. Test compound, 1 uM STK-substrate-biotin, 3 nM of ASK1 kinase are incubated with 1*Kinase buffer with 5 mM MgCl2 and 1 mM DTT. 250 nM Sa-XL 665(4*) and STK-antibody-Cryptate work solution are added to stop the reaction and phosphorylated peptide substrate is detected using Envision 2104 Multilabeled reader from PerkinElmer. The fluorescence is measured at 615 nm (Cryptate) and 665 nm (XL665) and a ratio of 665 nm/615 nm is calculated for each well. The resulting TR-FRET level (a ratio of 665 nm/615 nm) is proportional to the phosphorylation level of substrate.

Which EC50 does the source give for CC(C)n1cnnc1-c1cccc(-c2ncc(-c3ccc4ccccc4c3)o2)n1 [Compound I-101] here?
The EC50 was 50 to 500 nM.

Which EC50 does the source give for C[C@H](CO)n1cnnc1-c1cccc(-c2ncc(-c3ccc(N)cc3)o2)n1 [Compound I-066] here?
The EC50 was ≤ 50 nM.

With Cc1ccc(-c2cnc(-c3cccc(-c4nncn4C(C)CO)n3)o2)c(F)c1 (centres unmarked) [Compound I-001, 2-(3-(6-(5-(2-Fluoro-4-methylphenyl)oxazol-2-yl)pyridin-2-yl)-4H-1,2,4-triazol-4-yl) propan-1-ol] as the compound, how does the EC50 read?
Its EC50 is ≤ 50 nM.

Which EC50 does the source give for C[C@H](CO)n1cnnc1-c1cccc(-c2ncc(-c3cccc(C4CCCCC4)c3)o2)n1 [Compound I-129] here?
Its EC50 is ≤ 50 nM.

For Cc1ccccc1-c1cnc(-c2cccc(-c3nncn3C(C)C)n2)o1 [Compound I-024], which EC50 is on record?
The EC50 was ≤ 50 nM.

How did the EC50 turn out when Cc1ccc(-c2cnc(-c3cccc(-c4nncn4[C@@H](C)CO)n3)o2)c(F)c1 [Compound I-043] was run?
The EC50 was 50 to 500 nM.

Which EC50 does the source give for CC(C)n1cnnc1-c1cccc(-c2ncc(-c3cccc(OC(F)(F)F)c3)o2)n1 [Compound I-082] here?
Its EC50 is 50 to 500 nM.

Which EC50 does the source give for CCC(C)n1cnnc1-c1cccc(-c2ncc(-c3ccccc3C)o2)n1 (centres unmarked) [Compound I-026] here?
Its EC50 is 50 to 500 nM.

With CC(C)n1cnnc1-c1cccc(-c2ncc(-c3cccc(C#N)c3)o2)n1 [Compound I-090] as the compound, how does the EC50 read?
Its EC50 is 50 to 500 nM.

With CC(C)n1cnnc1-c1cccc(-c2ncc(-c3ccc(C(N)=O)cc3)o2)n1 [Compound I-095] as the compound, how does the EC50 read?
The EC50 was 50 to 500 nM.

Which EC50 does the source give for CSc1cccc(-c2cnc(-c3cccc(-c4nncn4C(C)C)n3)o2)c1 [Compound I-068] here?
The EC50 was ≤ 50 nM.

Which EC50 does the source give for CC(C)n1cnnc1-c1cc(-c2ncc(-c3ccccc3)o2)cs1 [II-01, 3-[4-(5-Phenyl-1,3-oxazol-2-yl)thiophen-2-yl]-4-(propan-2-yl)-4H-1,2,4-triazole] here?
Its EC50 is 50 to 500 nM.

CC(C)n1cnnc1-c1cccc(-c2ncc(-c3ccc(N(C)C)cc3)o2)n1 [Compound I-057] was tested. Which EC50 did it give?
The EC50 was ≤ 50 nM.

With CC(C)n1cnnc1-c1cccc(-c2ncc(-c3cccc(C4=CCN(C(=O)OC(C)(C)C)C4)c3)o2)n1 [Compound I-124] as the compound, how does the EC50 read?
Its EC50 is 50 to 500 nM.

For C[C@H](CO)n1cnnc1-c1cccc(-c2ncc(-c3ccc(S(N)(=O)=O)cc3)o2)n1 [Compound I-100], which EC50 is on record?
Its EC50 is ≤ 50 nM.

CC(C)n1cnnc1-c1cccc(-c2ncc(-c3cccc(N4CCN(C5CC5)CC4)c3)o2)n1 [Compound I-118] was tested. Which EC50 did it give?
Its EC50 is ≤ 50 nM.

With Cc1cccc(F)c1-c1cnc(-c2cccc(-c3nncn3C(C)C)n2)o1 [Compound I-044] as the compound, how does the EC50 read?
Its EC50 is 50 to 500 nM.

Which EC50 does the source give for CC(C1CC1)n1cnnc1-c1cccc(-c2ncc(-c3ccccc3)o2)n1 (centres unmarked) [Compound I-015, 2-(6-(4-(1-Cyclopropylethyl)-4H-1,2,4-triazol-3-yl)pyridin-2-yl)-5-phenyloxazole] here?
The EC50 was ≤ 50 nM.

Which EC50 does the source give for CC(C)n1cnnc1-c1cccc(-c2ncc(-c3ccccc3)o2)n1 [Compound I-002, 2-(5-Phenyl-1,3-oxazol-2-yl)-6-[4-(propan-2-yl)-4H-1,2,4-triazol-3-yl] pyridine] here?
Its EC50 is ≤ 50 nM.

CC(C)Oc1cccc(-c2cnc(-c3cccc(-c4nncn4C(C)C)n3)o2)c1 [Compound I-076] was tested. Which EC50 did it give?
The EC50 was ≤ 50 nM.

How did the EC50 turn out when COC(=O)c1cccc(-c2cnc(-c3cccc(-c4nncn4C(C)C)n3)o2)c1 [Compound I-092] was run?
Its EC50 is ≤ 50 nM.

Which EC50 does the source give for COc1cccc(-c2cnc(-c3cccc(-c4nncn4C(C)C)n3)o2)c1 [Compound I-070] here?
The EC50 was 50 to 500 nM.

Cc1ccc(-c2cnc(-c3cccc(-c4nncn4C(C)C)n3)s2)c(F)c1 [Compound I-003, 5-(2-Fluoro-4-methylphenyl)-2-(6-(4-isopropyl-4H-1,2,4-triazol-3-yl)pyridin-2-yl)thiazole] was tested. Which EC50 did it give?
The EC50 was 50 to 500 nM.

How did the EC50 turn out when c1ccc(-c2cnc(-c3cccc(-c4nncn4C4CC4)n3)o2)cc1 [Compound I-017] was run?
The EC50 was 50 to 500 nM.

C[C@H](CO)n1cnnc1-c1cccc(-c2ncc(-c3cccc(C4CCCC4)c3)o2)n1 [Compound I-135] was tested. Which EC50 did it give?
Its EC50 is ≤ 50 nM.

Which EC50 does the source give for C[C@H](CO)n1cnnc1-c1cccc(-c2ncc(-c3cccc(N4CCCC4)c3)o2)n1 [Compound I-126] here?
Its EC50 is ≤ 50 nM.

Which EC50 does the source give for CC(C)n1cnnc1-c1cccc(-c2ncc(-c3ccc4c(c3)OCCO4)o2)n1 [Compound I-102] here?
Its EC50 is ≤ 50 nM.

Which EC50 does the source give for Cc1ccc(-c2cnc(-c3cccc(-c4nncn4C(C)C)n3)o2)c(C)c1 [Compound I-031] here?
Its EC50 is ≤ 50 nM.

CC(C)n1cnnc1-c1cccc(-c2ncc(-c3ccc(F)cc3F)o2)n1 [Compound I-049] was tested. Which EC50 did it give?
The EC50 was 50 to 500 nM.

How did the EC50 turn out when CC(C)n1cnnc1-c1cccc(-c2ncc(-c3cccc(N4CCOCC4)c3)o2)n1 [Compound I-110] was run?
The EC50 was ≤ 50 nM.

CC(C)n1cnnc1-c1cccc(-c2ncc(-c3cccc(N4CCCCC4)c3)o2)n1 [Compound I-120] was tested. Which EC50 did it give?
Its EC50 is 50 to 500 nM.

For C[C@@H](CO)n1cnnc1-c1cccc(-c2ncc(-c3ccccc3)o2)n1 [Compound I-019], which EC50 is on record?
The EC50 was 50 to 500 nM.

With CC(C)n1cnnc1-c1cccc(-c2ncc(-c3cccc(N4CCCC4)c3)o2)n1 [Compound I-125] as the compound, how does the EC50 read?
Its EC50 is ≤ 50 nM.

How did the EC50 turn out when CNc1ccc(-c2cnc(-c3cccc(-c4nncn4C(C)C)n3)o2)cc1 [Compound I-060] was run?
Its EC50 is ≤ 50 nM.

Cc1cc(C)c(-c2cnc(-c3cccc(-c4nncn4[C@H](C)CO)n3)o2)c(C)c1 [Compound I-033] was tested. Which EC50 did it give?
The EC50 was 50 to 500 nM.

Which EC50 does the source give for CC(C)n1cnnc1-c1cccc(-c2ncc(-c3cccc(C(=O)Nc4ccccc4)c3)o2)n1 [Compound I-006, N-Phenyl-3-(2-[6-[4-(propan-2-yl)-4H-1,2,4-triazol-3-yl]pyridin-2-yl]-1,3-oxazol-5-yl)benzamide] here?
Its EC50 is 50 to 500 nM.

CNc1cccc(-c2cnc(-c3cccc(-c4nncn4[C@H](C)CO)n3)o2)c1 [Compound I-062] was tested. Which EC50 did it give?
The EC50 was ≤ 50 nM.

For Cc1ccccc1-c1cnc(-c2cccc(-c3nncn3[C@H](C)CN)n2)o1 [Compound I-013, (R)-2-(3-(6-(5-o-Tolyloxazol-2-yl)pyridin-2-yl)-4H-1,2,4-triazol-4-yl)propan-1-amine], which EC50 is on record?
The EC50 was 500 to 5000 nM.

For CCN1CCN(c2cccc(-c3cnc(-c4cccc(-c5nncn5C(C)C)n4)o3)c2)CC1 [Compound I-010, 5-(3-(4-Ethylpiperazin-1-yl)phenyl)-2-(6-(4-isopropyl-4H-1,2,4-triazol-3-yl)pyridin-2-yl)oxazole], which EC50 is on record?
Its EC50 is ≤ 50 nM.

CC(C)n1cnnc1-c1cccc(-c2ncc(-c3ccc(C#N)cc3)o2)n1 [Compound I-091] was tested. Which EC50 did it give?
The EC50 was 50 to 500 nM.

How did the EC50 turn out when CC(C)n1cnnc1-c1cccc(-c2ncc(C3CCCCC3)o2)n1 [Compound I-016, 5-Cyclohexyl-2-(6-(4-isopropyl-4H-1,2,4-triazol-3-yl)pyridin-2-yl) oxazole] was run?
Its EC50 is 50 to 500 nM.

With CC(C)n1cnnc1-c1cccc(-c2ncc(-c3ccc(C(=O)O)cc3)o2)n1 [Compound I-094] as the compound, how does the EC50 read?
The EC50 was ≤ 50 nM.

How did the EC50 turn out when CC(C)n1cnnc1-c1cccc(-c2ncc(-c3cccc(N(C)C)c3)o2)n1 [Compound I-058] was run?
Its EC50 is ≤ 50 nM.

CC(C)n1cnnc1-c1cccc(-c2ncc(-c3c(F)cccc3F)o2)n1 [Compound I-050] was tested. Which EC50 did it give?
Its EC50 is ≤ 50 nM.

C[C@H](CO)n1cnnc1-c1cccc(-c2ncc(-c3cccc(C4=CCCCC4)c3)o2)n1 [Compound I-130] was tested. Which EC50 did it give?
Its EC50 is 50 to 500 nM.

For CC(C)n1cnnc1-c1cccc(-c2ncc(-c3ccc(OC(F)(F)F)cc3)o2)n1 [Compound I-081], which EC50 is on record?
Its EC50 is 50 to 500 nM.

How did the EC50 turn out when Cc1ccccc1-c1cnc(-c2cccc(-c3nncn3C(C)C(F)(F)F)n2)o1 (centres unmarked) [Compound I-027] was run?
Its EC50 is ≤ 50 nM.

Which EC50 does the source give for Cc1ccc(-c2cnc(-c3cccc(-c4nncn4C(C)C)n3)o2)c(F)c1 [Compound I-041] here?
Its EC50 is ≤ 50 nM.

CC(C)n1cnnc1-c1cccc(-c2ncc(-c3cccc(C4CC4)c3)o2)n1 [Compound I-040] was tested. Which EC50 did it give?
Its EC50 is ≤ 50 nM.

Which EC50 does the source give for CC(C)n1cnnc1-c1cccc(-c2ncc(-c3ccccc3C#N)o2)n1 [Compound I-089] here?
Its EC50 is 50 to 500 nM.
